The results in this text go back to patent US11286263B2, “Macrocyclic fluorine substituted indole derivatives” (The Broad Institute, Inc., priority 2017, dated 2022).

Several values for one entry are separate records, joined by “and”; a condition that tells them apart may be missing. Identical values can stand only once. Like-named read-outs stand apart in the source and are kept apart here.

The target in one assay is BCL-2 (Homo sapiens (Human), UniProt P10415). Briefly: Protein-protein interaction assay BCL-2/Bad BH3 peptide (BCL-2 assay), TR-FRET. The format is binding. The following applies: BCL-2/Bad BH3 peptide TR-FRET; median. The method, then: Assay 3 Protein-Protein Interaction assay: BCL-2/Bad BH3 Peptide (BCL-2 Assay)
BCL-2, sequence (P10415 1-211): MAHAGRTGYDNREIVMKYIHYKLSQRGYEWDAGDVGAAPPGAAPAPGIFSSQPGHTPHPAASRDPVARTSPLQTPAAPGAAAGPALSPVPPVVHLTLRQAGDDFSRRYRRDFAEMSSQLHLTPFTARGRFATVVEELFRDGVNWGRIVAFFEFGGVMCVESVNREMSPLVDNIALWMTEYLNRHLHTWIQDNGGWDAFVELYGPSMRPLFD
The dose-dependent inhibition by the compounds described in this invention of the interaction between BCL-2 and the BH3 domain of Bad (both human) was determined using a steady state binding competition assay with time-resolved fluorescence energy transfer (TR-FRET) readout. For that purpose BCL-2 (amino acids 1-211, C-terminal fused to a hexahistidine (6× His) tag (SEQ ID 5) and a synthetic Bad BH3-derived peptide of sequence Biotin-PEG2-PEG2-NLWAAQRYGRELRR-Nle-SDEFVDSFKK-amide (SEQ ID 4) served as protein receptor and tracer ligand respectively. The recombinant BCL-2 protein (expressed in E. coli) was purchased from BPS Bioscience (San Diego, Calif., USA). The Bad BH3-derived peptide can be obtained from e.g. Biosyntan (Berlin, Germany).
In the assay 11 different concentrations of each compound (0.1 nM, 0.33 nM, 1.1 nM, 3.8 nM, 13 nM, 44 nM, 0.15 μM, 0.51 μM, 1.7 μM, 5.9 μM and 20 μM) were typically measured as duplicates in the same microtiter plate. For that, 100-fold concentrated DMSO solutions were prepared by serial dilutions (1:3.4) of a 2 mM stock solution in a clear, 384-well microtiter plate (Greiner Bio-One, Frickenhausen, Germany). From there, 50 nl were transferred in a dark test plate (Greiner Bio-One, Frickenhausen, Germany). The assay was initiated by addition of 2 μl of a 2,5-fold concentrated His-BCL-2 solution (usually for a 1 nM end concentration in 5 μl reaction volume) in aqueous assay buffer [50 mM Tris/HCl pH 7, 100 mM sodium chloride (NaCl), 50 mM potassium fluoride (KF), 0.005% Tween-20, 2 mM DTT, 0.1% bovine gamma globulin (BGG)] to the compounds in the assay plate. This was followed by a 10-minute incubation step at 22° C. for pre-equilibration of the putative complex between His-BCL-2 and the compounds. After that, 3 μl of a 1.67-fold concentrated solution (in assay buffer) consisting of Bad BH3-derived peptide (1 nM end concentration) and TR-FRET detection reagents [1.67 nM anti-His-Eu cryptate and 1.67 nM streptavidin-XL665 (both from Cisbio Bioassays, Codolet, France)], were added.
The mixture was incubated in the dark for one hour at 22° C. and then overnight at 4° C. The formation of BCL-2/Bad complexes was determined by measuring the resonance energy transfer of the anti-His-Eu-cryptate antibody to the streptavidin-XL665 present in the reaction. For that purpose, the fluorescence emission at 620 nm and 665 nm after excitation at 330-350 nm was measured in a TR-FRET measuring instrument, for instance a Rubystar or a Pherastar (both from BMG Lab Technologies, Offenburg, Germany) or a Viewlux (Perkin-Elmer). The ratio of the emission at 665 nm and at 622 nm was used as indicator of the amount of BCL-2/Bad complexes present.
The resulting data (ratio) were normalized, taking 0% inhibition as the mean value of control measurements (usually 32 data points) where all reagents were included. In this case 50 nl DMSO were used instead of compounds. A 100% inhibition corresponded to the mean value of control measurements (usually 32 data points) where all reagents except BCL-2 were included. IC50 values were determined by regression analysis based on a 4 parameter equation (minimum, maximum, IC50, Hill; Y=Max+(Min−Max)/(1+(X/IC50)^Hill) using the Screener Software (Genedata).

The next assay relates to SUDHL10. Briefly: Induction of caspase-3/7 activity, SUDHL10 (Assay 4). The format is cell-based. The following applies: SUDHL10 cells. In a few lines: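 DLBCL lines treated with compounds for 3 h at 37° C.; caspase-3/7 activity read by Caspase-Glo 3/7 luminescence. Medium-only background subtracted; EC50 fitted with bottom fixed at 1 and top set to reference compound's maximal induction.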

A further assay relates to MV-4-11. Briefly: Antiproliferation assay MV-4-11 (Assay 7). The format is cell-based. Particulars: MV-4-11 cells, CellTiter-Glo, single determinations, read-out: IC50 Antiproli MV-4-11. In a few lines:
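Cells were incubated with compounds for 72 h at 37°C. Viability was then read by CellTiter-Glo luminescence, and a parallel day 0 plate read the same way gave the time-zero signal.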

Where [1] appears, read: Homo sapiens, SU-DHL10, 3 h, Caspase-Glo 3/7, median.

Turning to `Cc1nn(C)c2c1-c1c(F)ccc3c(CCCOc4cccc5ccccc45)c(C(=O)O)n(c13)CCCCOC2` (racemic) [Example 10, (rac)-13-fluoro-10,12-dimethyl-1-(3-(naphthalen-1-yloxy)propyl)-4,5,6,7,9,10-hexahydro-pyrazolo[4′,3′:9,10][1]oxa[6]azacycloundecino[8,7,6-hi]indole-2-carboxylic acid], the IC50 was over 20 µM against BCL-2; 6.53 µM in the assay with MV-4-11 (Homo sapiens, MV4-11, 72 h); 4.39 µM in the assay on MV-4-11 (72 h). In addition, the EC50 with SUDHL10 (setting [1]) worked out at 7.8 µM.

Take `CCc1c2c(nn1C)COCCCCn1c(C(=O)O)c(CCCOc3cc(C)c(Cl)c(C)c3)c3ccc(F)c-2c31` (racemic) [Example 31, (rac)-1-(3-(4-chloro-3,5-dimethylphenoxy)propyl)-12-ethyl-13-fluoro-11-methyl-4,5,6,7,9,11-hexahydropyrazolo[4′,3′:9,10][1]oxa[6]azacycloundecino[8,7,6-hi]indole-2-carboxylic acid]: the half-maximal inhibitory concentration (IC50) is over 20 µM against BCL-2; 6.07 µM in the assay on MV-4-11 (Homo sapiens, MV4-11, 72 h); 8.25 µM in the assay on MV-4-11 (72 h). The molecule also displayed an EC50 in the assay on SUDHL10 (setting [1]) of 4.5 µM.

Take `CCc1nn(C)c2c1-c1c(F)ccc3c(CCCOc4cc(C)c(Cl)c(C)c4)c(C(=O)O)n(c13)CCCCOC2` (racemic) [Example 46, (rac)-1-(3-(4-chloro-3,5-dimethylphenoxy)propyl)-12-ethyl-13-fluoro-10-methyl-4,5,6,7,9,10-hexahydropyrazolo[4′,3′:9,10][1]oxa[6]azacycloundecino[8,7,6-hi]indole-2-carboxylic acid]: the IC50 at BCL-2 is over 20 µM; in the assay with MV-4-11 (Homo sapiens, MV4-11, 72 h), 21 µM; in the assay on MV-4-11 (72 h) it was 11.4 µM. The molecule also returned a concentration for a half-maximal effect (EC50) in the assay with SUDHL10 (setting [1]) of 7.7 µM.

With `Cc1nn(C)c2c1-c1c(F)ccc3c(CCCOc4cccc5c4CCCC5)c(C(=O)O)n(c13)CCCCOC2` (racemic) [Example 34, (rac)-13-fluoro-10,12-dimethyl-1-(3-((5,6,7,8-tetrahydronaphthalen-1-yl)oxy)propyl)-4,5,6,7,9,10-hexahydropyrazolo[4′,3′:9,10][1]oxa[6]azacycloundecino[8,7,6-hi]indole-2-carboxylic acid], the IC50 on BCL-2 was over 20 µM; in the assay with MV-4-11 (Homo sapiens, MV4-11, 72 h), 11.6 µM; in the assay on MV-4-11 (72 h) it was 12.3 µM. In the assay on SUDHL10 (setting [1]), the EC50 came to 5.9 µM.

Turning to `CCc1nn(C)c2c1-c1c(F)ccc3c(CCCOc4ccc(F)c5ccccc45)c(C(=O)O)n(c13)CCCCOC2` (single isomer, unassigned; enantiomer 1) [Example 42, 3-ethyl-4-fluoro-7-{3-[(4-fluoronaphthalen-1-yl)oxy]propyl}-1-methyl-1,10,11,12,13,15-hexahydropyrazolo[4′,3′:9,10][1,6]oxazacycloundecino[8,7,6-hi]indole-8-carboxylic acid (enantiomer 1)], the IC50 against BCL-2 was over 20 µM; with MV-4-11 (72 h) it was 5.79 µM. The EC50 in the assay with SUDHL10 (3 h, Caspase-Glo 3/7, median) came out at 6.3 µM.

“(rac)-1-(3-((2,3-dihydro-1H-inden-4-yl)oxy)propyl)-12-ethyl-13-fluoro-11-methyl-4,5,6,7,9,11-hexahydropyrazolo[4′,3′:9,10][1]oxa[6]azacycloundecino[8,7,6-hi]indole-2-carboxylic acid [Example 30]”: the IC50 at BCL-2 was over 20 µM; in the assay with MV-4-11 (72 h), 1.77 µM and 3.04 µM. Moreover, the EC50 on SUDHL10 (3 h, Caspase-Glo 3/7, median) was 1.7 µM.

For the molecule `CCc1c2c(nn1C)COCCCCn1c(C(=O)O)c(CCCOc3cccc4c3CCCC4)c3ccc(F)c-2c31` (racemic) [Example 29, (rac)-12-ethyl-13-fluoro-11-methyl-1-(3-((5,6,7,8-tetrahydronaphthalen-1-yl)oxy)propyl)-4,5,6,7,9,11-hexahydropyrazolo[4′,3′:9,10][1]oxa[6]azacycloundecino[8,7,6-hi]indole-2-carboxylic acid], the IC50 against BCL-2 was over 20 µM; in the assay with MV-4-11 (Homo sapiens, MV4-11, 72 h), 2.04 µM; with MV-4-11 (72 h), 2.55 µM. The EC50 in the assay with SUDHL10 (setting [1]) stood at 1.7 µM.

As for `CCc1nn(C)c2c1-c1c(F)ccc3c(CCCOc4cccc5ccccc45)c(C(=O)O)n(c13)CCCCOC2` (racemic) [Example 37, (rac)-12-ethyl-13-fluoro-10-methyl-1-(3-(naphthalen-1-yloxy)propyl)-4,5,6,7,9,10-hexahydro-pyrazolo[4′,3′:9,10][1]oxa[6]azacycloundecino[8,7,6-hi]indole-2-carboxylic acid], the IC50 is over 20 µM on BCL-2; 8.4 µM in the assay on MV-4-11 (Homo sapiens, MV4-11, 72 h); 6.8 µM and 7.54 µM in the assay on MV-4-11 (72 h). Moreover, a half-maximal effect in the assay on SUDHL10 (setting [1]) (EC50) was put at 7.2 µM.

For `Cc1cc(OCCCc2c(C(=O)O)n3c4c(c(F)ccc24)-c2c(nn(C)c2C)COCCCC3)cc(C)c1Cl` (racemic) [Example 20, (rac)-1-(3-(4-chloro-3,5-dimethylphenoxy)propyl)-13-fluoro-11,12-dimethyl-4,5,6,7,9,11-hexahydropyrazolo[4′,3′:9,10][1]oxa[6]azacycloundecino[8,7,6-hi]indole-2-carboxylic acid], the IC50 was over 20 µM against BCL-2; 8.18 µM with MV-4-11 (Homo sapiens, MV4-11, 72 h); 5.54 µM with MV-4-11 (72 h). Besides, the EC50 in the assay with SUDHL10 (setting [1]) was determined as 4 µM.

For the molecule `Cc1c2c(nn1C)COCCCCn1c(C(=O)O)c(CCCOc3cccc4c3CCCC4)c3ccc(F)c-2c31` (racemic) [Example 18, (rac)-13-fluoro-11,12-dimethyl-1-(3-((5,6,7,8-tetrahydronaphthalen-1-yl)oxy)propyl)-4,5,6,7,9,11-hexahydropyrazolo[4′,3′:9,10][1]oxa[6]azacycloundecino[8,7,6-hi]indole-2-carboxylic acid], the IC50 was over 20 µM against BCL-2; 3.53 µM in the assay with MV-4-11 (Homo sapiens, MV4-11, 72 h); 2.89 µM and 5.61 µM with MV-4-11 (72 h). In addition, the EC50 with SUDHL10 (setting [1]) was 2.3 µM.

Consider `Cc1c2c(nn1C)CNCCCCn1c(C(=O)O)c(CCCOc3cccc4ccccc34)c3ccc(F)c-2c31` (single isomer, unassigned; enantiomer 1) [Example 48, 4-fluoro-2,3-dimethyl-7-{3-[(naphthalen-1-yl)oxy]propyl}-10,11,12,13,14,15-hexahydro-2H-pyrazolo[3′,4′:8,9][1,6]diazacycloundecino[10,11,1-hi]indole-8-carboxylic acid (enantiomer 1)], for which, on BCL-2, the 50% inhibitory concentration (IC50) is over 20 µM. For the same molecule, the concentration for a half-maximal effect (EC50) in the assay with SUDHL10 (3 h, Caspase-Glo 3/7, median) is 2.1 µM.

Consider `Cc1c2c(nn1C)COCCCCn1c(C(=O)O)c(CCCOc3ccc(F)c4ccccc34)c3ccc(F)c-2c31` (racemic) [Example 15, (rac)-13-fluoro-1-(3-((4-fluoronaphthalen-1-yl)oxy)propyl)-11,12-dimethyl-4,5,6,7,9,11-hexahydropyrazolo[4′,3′:9,10][1]oxa[6]azacycloundecino[8,7,6-hi]indole-2-carboxylic acid], for which the IC50 against BCL-2 is over 20 µM. In the assay with SUDHL10 (setting [1]), the EC50 was determined as 5.8 µM.

On BCL-2, `CCc1c2c(nn1C)CN(C)CCCCn1c(C(=O)O)c(CCCOc3cccc4c3CCC4)c3ccc(F)c-2c31` (racemic) [Example 51, (rac)-7-[3-(2,3-dihydro-1H-inden-4-yloxy)propyl]-3-ethyl-4-fluoro-2,14-dimethyl-10,11,12,13,14,15-hexahydro-2H-pyrazolo[3′,4′:8,9][1,6]diazacycloundecino[10,11,1-hi]indole-8-carboxylic acid] showed an IC50 of over 20 µM. Further, the response in the assay on SUDHL10 (setting [1]) was half-maximal at 0.44 µM (EC50).
